The values below come from ChEMBL document CHEMBL1130572, “Synthesis and anti HCMV activity of 3,4-disubstituted tetrahydrofuran derived nucleosides and nucleotides: A tethered series of PME derivatives” (Bioorg Med Chem Lett, 1997).

Structures are written as SMILES. In brackets after ≈: the same amount, converted by molar mass. Activity calls are given as the source filed them. The rule behind the calls is not given here.

The subject of test [1] is Human betaherpesvirus 5. Description: Compound (up to 100 ug/mL) was tested in vitro for inhibitory activity against HCMV (Human cytomegalovirus); Inactive. Type of test: functional, organism-based.
For test [2], the system named is F2002 cell line. Description: Compound was tested in vitro for cytotoxic activity against HCMV (Human cytomegalovirus) in Flow 2002 cells. Type of test: functional.
In test [3] the test system is F2002 cell line. Description: Compound was tested in vitro for inhibitory activity against HCMV (Human cytomegalovirus) in Flow 2002 cells. Type of test: functional, cell-based.
The nature of test [4]: Compound was tested for selectivity index of […]. The class given is functional.
The test system of test [5] is Human betaherpesvirus 5. Description: Compound was tested in vitro for cytotoxic activity against HCMV (Human cytomegalovirus). Type of test: functional.
Test [6] deals with Human betaherpesvirus 5. Description: Compound was tested in vitro for inhibitory activity against HCMV (Human cytomegalovirus). Type of test: functional, organism-based.
Test [7] relates to WI-38. Description: Compound was tested in vitro for cytotoxic activity against HCMV (Human cytomegalovirus) in WI38 cells. Type of test: functional.
In test [8] the test system is WI-38. The experiment in a line: Compound was tested in vitro for inhibitory activity against HCMV (Human cytomegalovirus) in WI38 cells. The class given is functional, cell-based.

On to `Nc1ncnc2c1ncn2[C@@H]1COCC1OCP(=O)(O)O` (stereo partly drawn), for which the outcome in test [1] was inactive.
On to `Nc1ccn([C@@H]2COCC2O)c(=O)n1` (stereo partly drawn), for which half-maximal cytotoxicity in test [2] (CC50) was put at 100 µg/mL (≈ 507 µM). The compound further had an IC50 in test [3] of 3 µg/mL (≈ 15.2 µM). In test [4], this compound displayed a Selectivity index of 33.
In the case of `Nc1nc2c(ncn2COC(CO)CO)c(=O)[nH]1` [GANCICLOVIR], the half-maximal cytotoxic concentration (CC50) in test [5] is over 100 µg/mL. The same compound gave an IC50 in test [6] of 0.1 µg/mL (≈ 0.392 µM).
As to `Nc1ccn(C2COCC2O)c(=O)n1` (stereo not drawn), in test [2], the midpoint of cytotoxicity, the CC50, lay at 100 µg/mL (≈ 507 µM). This compound also displayed an IC50 in test [3] of over 100 µg/mL.
As to `O=c1ccn([C@@H]2COCC2OCP(=O)(O)O)c(=O)[nH]1` (stereo partly drawn), it took 100 µg/mL (≈ 342 µM) to reach half-maximal cytotoxicity in test [2] (CC50). This compound also came in with an IC50 in test [3] of over 100 µg/mL.
As for `O=c1ccn(C2COCC2OCP(=O)(O)O)c(=O)[nH]1` (stereo not drawn), the 50% cytotoxic concentration (CC50) in test [2] is over 100 µg/mL. Also, in test [3], the half-inhibitory concentration (IC50) was over 100 µg/mL.
For the compound `N.Nc1ccn([C@@H]2COCC2OCP(=O)(O)O)c(=O)n1` (stereo partly drawn), in test [7], the CC50 is over 100 µg/mL. Moreover, the IC50 in test [8] is over 50 µg/mL.
The like results for `Nc1ncnc2c1ncn2C1COCC1O` (stereo not drawn) were, in that order, 100 µg/mL (≈ 452 µM) and over 50 µg/mL.
On to `Nc1ncnc2c1ncn2C1COCC1OCP(=O)(O)O` (stereo not drawn), for which the outcome in test [1] was inactive.
Regarding `N.Nc1ccn(C2COCC2OCP(=O)(O)O)c(=O)n1` (stereo not drawn), the CC50 in test [7] is over 100 µg/mL. The compound further came in with an IC50 in test [8] of over 100 µg/mL.
`O=c1ccn([C@@H]2COCC2O)c(=O)[nH]1` (stereo partly drawn) gave a cytotoxic concentration (CC50) in test [2] of over 100 µg/mL. The same compound yielded an IC50 in test [3] of over 100 µg/mL.
With `Nc1ncnc2c1ncn2[C@@H]1COCC1O` (stereo partly drawn), the CC50 in test [2] was over 100 µg/mL. The IC50 in test [3] was over 100 µg/mL.
